The target in data set [1] is T1, Calmodulin-sensitive adenylate cyclase (Bacillus anthracis) (UniProt P40136).
T1 sequence (whole entry): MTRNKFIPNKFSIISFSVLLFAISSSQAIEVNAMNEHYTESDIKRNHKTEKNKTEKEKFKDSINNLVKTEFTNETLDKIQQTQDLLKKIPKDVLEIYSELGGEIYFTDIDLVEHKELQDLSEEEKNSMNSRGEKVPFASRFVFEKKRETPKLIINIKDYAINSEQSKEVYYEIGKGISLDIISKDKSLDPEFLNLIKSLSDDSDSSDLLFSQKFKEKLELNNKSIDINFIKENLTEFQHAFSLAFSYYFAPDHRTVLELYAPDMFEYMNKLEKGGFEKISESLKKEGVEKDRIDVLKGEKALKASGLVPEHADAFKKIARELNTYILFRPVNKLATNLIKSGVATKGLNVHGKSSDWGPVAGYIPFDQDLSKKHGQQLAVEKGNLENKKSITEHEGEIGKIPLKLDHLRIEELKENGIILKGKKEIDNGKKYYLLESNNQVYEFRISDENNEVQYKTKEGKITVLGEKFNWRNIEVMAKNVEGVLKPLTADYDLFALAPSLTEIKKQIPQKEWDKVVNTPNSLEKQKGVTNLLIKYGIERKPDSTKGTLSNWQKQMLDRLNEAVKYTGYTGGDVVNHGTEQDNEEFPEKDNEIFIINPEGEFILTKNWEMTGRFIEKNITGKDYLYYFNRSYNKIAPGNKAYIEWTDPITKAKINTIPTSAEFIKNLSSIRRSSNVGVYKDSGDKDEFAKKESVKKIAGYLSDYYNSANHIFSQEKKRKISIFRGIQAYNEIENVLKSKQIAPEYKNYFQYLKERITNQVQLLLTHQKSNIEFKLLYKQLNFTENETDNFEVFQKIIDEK
Briefly: Inactivation of Bacillus anthracis edema factor assessed as Kinact/Ki ratio in presence of CaM incubated for 10 to 240 mins by EnzChek pyrophosphate assay relative to FSBA.

The target in data set [2] is T2, Calcium/calmodulin-dependent protein kinase type IV (Homo sapiens) (UniProt Q16566).
T2 sequence (whole entry): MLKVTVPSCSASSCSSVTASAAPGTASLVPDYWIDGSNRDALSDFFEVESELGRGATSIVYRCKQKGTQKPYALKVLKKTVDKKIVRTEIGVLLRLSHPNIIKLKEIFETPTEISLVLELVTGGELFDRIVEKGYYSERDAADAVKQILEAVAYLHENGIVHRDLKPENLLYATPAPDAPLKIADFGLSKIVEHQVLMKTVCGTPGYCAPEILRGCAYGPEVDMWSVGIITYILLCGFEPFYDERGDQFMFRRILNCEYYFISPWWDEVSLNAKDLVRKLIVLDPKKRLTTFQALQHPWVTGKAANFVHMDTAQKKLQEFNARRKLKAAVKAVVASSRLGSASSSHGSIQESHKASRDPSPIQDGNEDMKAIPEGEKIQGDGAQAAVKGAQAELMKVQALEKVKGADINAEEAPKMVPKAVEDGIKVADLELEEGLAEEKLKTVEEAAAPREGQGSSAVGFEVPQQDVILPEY
Briefly: Inhibition of human CAMK4 at 10 uM by ADP-Glo kinase assay. In general terms: In ADP-Glo the light output rises with the ADP produced.

The target in data set [3] is T3, Serine/threonine-protein kinase Chk1 (Homo sapiens) (UniProt O14757).
T3 sequence (whole entry): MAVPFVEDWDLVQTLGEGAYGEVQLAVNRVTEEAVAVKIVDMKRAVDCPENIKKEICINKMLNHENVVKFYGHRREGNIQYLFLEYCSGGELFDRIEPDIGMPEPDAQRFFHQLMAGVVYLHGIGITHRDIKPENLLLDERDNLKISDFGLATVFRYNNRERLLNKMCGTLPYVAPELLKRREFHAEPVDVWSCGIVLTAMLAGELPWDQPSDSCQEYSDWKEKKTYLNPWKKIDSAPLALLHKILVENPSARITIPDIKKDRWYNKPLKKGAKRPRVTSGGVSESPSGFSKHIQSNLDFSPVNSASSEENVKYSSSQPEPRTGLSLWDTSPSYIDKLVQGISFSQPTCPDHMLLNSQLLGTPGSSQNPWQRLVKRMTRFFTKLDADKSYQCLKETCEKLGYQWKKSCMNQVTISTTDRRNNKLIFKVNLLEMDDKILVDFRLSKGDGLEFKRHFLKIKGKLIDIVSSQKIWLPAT
Briefly: Inhibition of human CHK1 at 10 uM by ADP-Glo kinase assay.

Data set [4] has as its target Casein kinase I isoform alpha (Homo sapiens) (UniProt P48729). Briefly: Inhibition of human CK1a1 at 10 uM by ADP-Glo kinase assay.
Data set [5] concerns the target Casein kinase II subunit alpha (Homo sapiens) (UniProt P68400). Nature of the data set: Inhibition of human CK2a1 at 10 uM by ADP-Glo kinase assay.
Data set [6] can be described thus: Chemical stability in 0.1 M sodium tetraborate (Na2B4O7, pH 10.0) assessed as parent compound remaining incubated for 24 hrs by LC-MS method. It is filed as physicochemical. The note with it: 0.1 M sodium tetraborate buffer, read-out: Stability.
Data set [7] is described as follows: Chemical stability in 0.1 N HCl at pH 1.2 assessed as parent compound remaining incubated for 24 hrs by LC-MS method. It is filed as physicochemical. The note with it: buffer, pH 1.2, 24 h.
Data set [8] is described as follows: Chemical stability in simulated gastric intestinal fluid at pH 1.7 assessed as parent compound remaining incubated for 24 hrs by LC-MS method. The settings on record: simulated gi fluid, pH 1.7, 24 h. It is filed as ADME, physicochemical.
The nature of data set [9]: Chemical stability in 0.1 M K2PO4 at pH 7.4 assessed as parent compound remaining incubated for 24 hrs by LC-MS method. The settings on record: buffer, pH 7.4, 24 h. It is filed as physicochemical.
Data set [10] is described as follows: Drug metabolism in 0.1 M sodium tetraborate (Na2B4O7, pH 10.0) assessed as fluoro-sulphonyl group hydrolysis incubated for 24 hrs by LC-MS method. The note with it: pH 10, 24 h. It is filed as physicochemical.
Data set [11] in a line: Stability in C57BL/6 mouse plasma assessed as assessed as parent compound remaining at 10 uM by LC-MS method. It is filed as ADME, cell-free, C57B/6. The note with it: read-out: Stability.
Data set [12] is described as follows: Stability in C57BL/6 mouse plasma assessed as half life at 10 uM by LC-MS method. It is filed as ADME, cell-free, C57B/6.

Broadly, the inhibition is how much of the control response was suppressed. For orientation: half-life means the time in which the quantity being followed falls by half.

Casein kinase II subunit alpha (Homo sapiens), sequence (P68400 whole entry, looked up): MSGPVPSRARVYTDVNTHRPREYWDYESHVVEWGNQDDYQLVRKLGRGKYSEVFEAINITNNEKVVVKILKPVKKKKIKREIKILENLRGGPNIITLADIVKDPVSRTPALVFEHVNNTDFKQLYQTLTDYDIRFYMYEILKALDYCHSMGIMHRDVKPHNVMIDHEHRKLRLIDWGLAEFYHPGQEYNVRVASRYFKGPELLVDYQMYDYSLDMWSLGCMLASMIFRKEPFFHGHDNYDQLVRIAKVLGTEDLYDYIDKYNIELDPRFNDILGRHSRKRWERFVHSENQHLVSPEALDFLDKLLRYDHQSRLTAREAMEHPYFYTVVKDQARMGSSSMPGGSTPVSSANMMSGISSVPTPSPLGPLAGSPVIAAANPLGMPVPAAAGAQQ
Casein kinase I isoform alpha (Homo sapiens), sequence (P48729 2-337 limits assumed): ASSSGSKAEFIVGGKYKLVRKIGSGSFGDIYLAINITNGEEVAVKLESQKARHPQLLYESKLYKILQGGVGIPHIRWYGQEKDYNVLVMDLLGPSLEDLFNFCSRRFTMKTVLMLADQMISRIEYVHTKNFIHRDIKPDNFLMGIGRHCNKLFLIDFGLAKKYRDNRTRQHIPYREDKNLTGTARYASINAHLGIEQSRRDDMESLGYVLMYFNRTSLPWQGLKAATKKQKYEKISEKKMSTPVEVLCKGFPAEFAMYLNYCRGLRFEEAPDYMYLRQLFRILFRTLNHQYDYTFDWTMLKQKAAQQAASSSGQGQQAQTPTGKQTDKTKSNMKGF

Turning to `Nc1ncnc2c1ccn2C1CCN(C(=O)c2ccc(S(=O)(=O)F)cc2)CC1`, in data set [1], the Ratio was found to be 1050. Further, the inhibition amounted to 7% in data set [2], 18% in [3], 0% in data set [4] and 9% in data set [5]. In data set [6], the remaining at 24 h is below 1%. In addition, the Stability result in data set [7], in data set [8] and in data set [9] was “Stable” each time. Further, in data set [10], the Drug metabolism entry was “Metabolite_Notdetected”. The remaining at 10 µM in data set [11] was below 5%. In data set [12], the half-life at 10 µM is 37.2 min.

For the compound `Cc1nc(N)c2ccn(C3CCN(C(=O)c4ccc(S(=O)(=O)F)cc4)CC3)c2n1`, the Ratio in data set [1] is 234. The inhibition turned out to be 27% in [2], 97% in data set [3], 0% in data set [4] and 16% in data set [5].

(Values after ChEMBL document CHEMBL4177722, “Small molecule inhibitors of anthrax edema factor” (Bioorg Med Chem Lett, 2018).)
